Laboratory results: ChEMBL document CHEMBL5303304, “EUbOPEN Chemogenomics Library - IncuCyte” (2023)

Tests used:
Type in all cases: toxicity, cell-based
HEK-293T = experiment: Incucyte cell viability with HEK293T; conditions: human, 10 µM, compound concentration 10 uM
Fibroblast = experiment: Incucyte cell viability with human fibroblast; conditions: 10 µM, compound concentration 10 uM
U2OS = experiment: Incucyte cell viability with U2OS; conditions: human, 10 µM, compound concentration 10 uM
Further: unitless GR value; below 1 slowed growth and below 0 cell loss.

Structure (SMILES)	Growth Rate (HEK-293T; 0 h, replicate number 2)	Growth Rate (HEK-293T; 6 h, replicate number 1)	Growth Rate (HEK-293T; 6 h, replicate number 2)	Growth Rate (HEK-293T; 12 h, replicate number 1)	Growth Rate (HEK-293T; 12 h, replicate number 2)	Growth Rate (HEK-293T; 18 h, replicate number 1)	Growth Rate (HEK-293T; 24 h, replicate number 1)	Growth Rate (HEK-293T; 24 h, replicate number 2)	Growth Rate (Fibroblast; 6 h, replicate number 2)	Growth Rate (Fibroblast; 12 h, replicate number 1)	Growth Rate (Fibroblast; 12 h, replicate number 2)	Growth Rate (Fibroblast; 18 h, replicate number 1)	Growth Rate (Fibroblast; 18 h, replicate number 2)	Growth Rate (Fibroblast; 24 h, replicate number 2)	Growth Rate (U2OS; 6 h, replicate number 1)	Growth Rate (U2OS; 6 h, replicate number 2)	Growth Rate (U2OS; 12 h, replicate number 1)	Growth Rate (U2OS; 18 h, replicate number 1)	Growth Rate (U2OS; 18 h, replicate number 2)	Growth Rate (U2OS; 24 h, replicate number 2)	also measured
COc1cc2c(NC3CCN(C(C)C)CC3)nc(C3CCCCC3)nc2cc1OCCCN1CCCC1	-1	-0.49	-0.51	-0.43	-0.45	-0.39	-0.26	-0.39	-0.65	-0.07	-0.48	-0.27	-0.46	-0.46	0.4	0.03	0.2	0.05	-0.16	-0.23	Growth Rate (HEK-293T; 18 h, replicate number 2): -0.38; Growth Rate (Fibroblast; 6 h, replicate number 1): -0.16; Growth Rate (Fibroblast; 24 h, replicate number 1): -0.35; Growth Rate (U2OS; 0 h, replicate number 1): -0.98; Growth Rate (U2OS; 0 h, replicate number 2): 0.19; Growth Rate (U2OS; 12 h, replicate number 2): -0.13; Growth Rate (U2OS; 24 h, replicate number 1): -0.01
CN[C@@H]1CC[C@@H](c2ccc(Cl)c(Cl)c2)c2ccccc21.Cl	-1	0	-0.43	0.01	-0.18	0.17	0.2	0.07	–	-0.24	-0.45	-0.26	-0.33	-0.2	0.8	0.35	0.75	0.81	0.41	0.45	Growth Rate (HEK-293T; 18 h, replicate number 2): -0.04; Growth Rate (Fibroblast; 6 h, replicate number 1): -0.46; Growth Rate (Fibroblast; 24 h, replicate number 1): -0.06; Growth Rate (U2OS; 0 h, replicate number 1): -0.9; Growth Rate (U2OS; 0 h, replicate number 2): 0.34; Growth Rate (U2OS; 12 h, replicate number 2): 0.04; Growth Rate (U2OS; 24 h, replicate number 1): 0.85
OC(c1ccc(-c2ccc(CN3CCN(Cc4ccncc4)CC3)cc2)c(F)c1)(C(F)(F)F)C(F)(F)F	-0.93	-0.1	0.22	-0.03	0.08	0.02	0.09	0.29	-0.55	0.07	-0.38	0.24	-0.18	-0.02	0.85	0.88	0.84	0.93	0.78	0.71	Growth Rate (HEK-293T; 18 h, replicate number 2): 0.23; Growth Rate (Fibroblast; 0 h, replicate number 1): 0.65; Growth Rate (Fibroblast; 6 h, replicate number 1): -0.31; Growth Rate (Fibroblast; 24 h, replicate number 1): 0.39; Growth Rate (U2OS; 0 h, replicate number 1): 0.44
COc1cccc(Cn2cc(C(=O)Nc3ccc(C)c(S(=O)(=O)N4CCOCC4)c3)c(-c3ccc(C)cc3)n2)c1	-0.05	0.76	–	–	–	0.99	0.96	–	0.77	0.7	–	0.89	–	–	–	–	0.96	–	–	–	Growth Rate (Fibroblast; 0 h, replicate number 2): 0.55; Growth Rate (Fibroblast; 6 h, replicate number 1): 0.43
Cc1cn(CCN2CCN(c3ccccc3-c3cc(C#N)cc(C(=O)NCCCN4CCCC4)c3)CC2)c2ccccc12	-1	-0.62	-0.59	-0.46	-0.49	-0.45	-0.38	-0.39	-0.91	-0.74	-0.87	-0.68	-0.81	-0.71	-0.93	-0.89	-0.85	-0.75	-0.77	-0.74	Growth Rate (HEK-293T; 18 h, replicate number 2): -0.47; Growth Rate (Fibroblast; 6 h, replicate number 1): -0.88; Growth Rate (Fibroblast; 24 h, replicate number 1): -0.66; Growth Rate (U2OS; 0 h, replicate number 1): -1; Growth Rate (U2OS; 0 h, replicate number 2): -0.98; Growth Rate (U2OS; 12 h, replicate number 2): -0.84; Growth Rate (U2OS; 24 h, replicate number 1): -0.72
CCN(C(=O)CO)[C@H]1CN(/C(=N\C#N)Nc2cccc(OC(F)F)c2)N=C1c1ccc(Cl)c(Cl)c1	-0.6	–	0.79	–	–	0.96	0.91	–	0.31	–	0.8	–	–	0.98	1	–	–	-0.52	–	–	Growth Rate (Fibroblast; 0 h, replicate number 2): 0.47; Growth Rate (U2OS; 24 h, replicate number 1): -0.49
COc1cc(Cl)c(C(=O)N[C@@H](CN[C@H]2CC[C@@H](N)CC2)Cc2ccc(C#N)cc2)cc1-c1ccc(CN[C@H](C)c2ccc(C)cc2)o1	-1	-0.6	-0.61	-0.61	-0.53	-0.48	-0.42	-0.4	-0.83	-0.8	-0.82	-0.76	-0.74	-0.68	-0.95	-0.91	-0.87	-0.77	-0.78	-0.76	Growth Rate (Fibroblast; 6 h, replicate number 1): -0.93; Growth Rate (Fibroblast; 24 h, replicate number 1): -0.72; Growth Rate (U2OS; 0 h, replicate number 1): -1; Growth Rate (U2OS; 0 h, replicate number 2): -0.99; Growth Rate (U2OS; 12 h, replicate number 2): -0.86; Growth Rate (U2OS; 24 h, replicate number 1): -0.74
CCOC(=O)C1Cc2ccccc2CN1C(=O)c1ccc(SC)s1 (stereo not given)	-0.82	0.05	0.28	0.12	0.49	0.47	0.41	0.5	0.06	0.66	0.1	0.58	0.63	0.67	0.96	0.87	–	–	0.98	0.88	Growth Rate (HEK-293T; 18 h, replicate number 2): 0.5; Growth Rate (Fibroblast; 24 h, replicate number 1): 0.86
c1ccc2c(-c3coc4cc(-c5ccc(N6CCNCC6)cc5)cnc34)ccnc2c1	-1	-0.57	-0.5	-0.52	-0.56	-0.42	-0.3	-0.33	–	0.93	0.61	0.29	0.28	0.11	–	0	0.59	0.14	-0.38	-0.46	Growth Rate (HEK-293T; 18 h, replicate number 2): -0.43; Growth Rate (Fibroblast; 0 h, replicate number 1): 0.87; Growth Rate (Fibroblast; 24 h, replicate number 1): 0.1; Growth Rate (U2OS; 0 h, replicate number 2): 0.9; Growth Rate (U2OS; 12 h, replicate number 2): -0.36; Growth Rate (U2OS; 24 h, replicate number 1): -0.05
O=C1COc2cc(C(=O)N(Cc3ccc(C(=O)Nc4ccncn4)cc3)C3CC3)ccc2N1	-0.63	0.38	0.01	0.74	0.42	0.75	0.95	0.72	0.55	0.28	0.88	0.54	0.79	0.98	0.39	0.77	0.37	0.61	0.77	0.87	Growth Rate (HEK-293T; 18 h, replicate number 2): 0.66; Growth Rate (Fibroblast; 6 h, replicate number 1): 0.36; Growth Rate (Fibroblast; 24 h, replicate number 1): 0.74; Growth Rate (U2OS; 0 h, replicate number 1): -0.53; Growth Rate (U2OS; 0 h, replicate number 2): 0.72; Growth Rate (U2OS; 12 h, replicate number 2): 0.8; Growth Rate (U2OS; 24 h, replicate number 1): 0.73
CCC(=O)O[C@@H](OP(=O)(CCCCc1ccccc1)CC(=O)N1C[C@H](C2CCCCC2)C[C@H]1C(=O)[O-])C(C)C.[Na+] (stereo not given in full)	-1	0.41	-0.23	0.66	0.04	0.77	0.84	0.49	0.94	0.72	–	–	–	–	0.56	–	0.78	0.78	–	–	Growth Rate (HEK-293T; 18 h, replicate number 2): 0.29; Growth Rate (Fibroblast; 0 h, replicate number 2): -0.2; Growth Rate (U2OS; 0 h, replicate number 1): 0.02; Growth Rate (U2OS; 24 h, replicate number 1): 0.77
COC(=O)c1sccc1S(=O)(=O)Nc1ccc(Nc2ccccc2)cc1OC	-0.92	–	0.93	–	0.77	–	–	–	0.48	–	0.47	–	0.95	0.74	0.61	0.91	0.91	0.81	0.9	0.82	Growth Rate (Fibroblast; 0 h, replicate number 2): 0.71; Growth Rate (U2OS; 0 h, replicate number 1): -0.11
